Source: US10570179B2, “Substituted urea depsipeptide analogs as activators of the CLPP endopeptidase” (priority 2016, dated 2020)
Numbered stars: 1 amine (or outer) side, 2 acyl side, 3 side chain; on linkers, the order of the positions; unused ones are H or OH. Bridge positions count the residues as written; N and C are the ends. Square brackets hold non-standard residues; d marks the D form. Peptide text beside a SMILES is read from it. * marks the point of attachment. Piperazine(2S-CO,4-Me) = CN1CCN[C@H](C(=O)O)C1; Phe(3,5-F2) = N[C@@H](Cc1cc(F)cc(F)c1)C(=O)O; NH(1-Me-indolin-5-yl) = CN1CCc2cc(N*)ccc21; X6 = O=C([C@@H]1CS(=O)(=O)CCN1[*:1])[*:2]; Morpholine(3S-CO) = O=C(O)[C@@H]1COCCN1; Phe(3-Me) = Cc1cccc(C[C@H](N)C(=O)O)c1; Pro(4S-Me) = C[C@@H]1CN[C@H](C(=O)O)C1; NH(4-Cl-2-F-phenyl) = Fc1cc(Cl)ccc1N*; Pro(4R-Me) = C[C@H]1CN[C@H](C(=O)O)C1; Propanoyl(3-NMe2) = CN(C)CCC(=O)*; X1 = O=C([C@@H]1CSCCN1[*:1])[*:2]; Hyp = O=C(O)[C@@H]1C[C@@H](O)CN1; NH(4-Me-phenyl) = Cc1ccc(N*)cc1; aThr = C[C@H](O)[C@H](N)C(=O)O; Pip = O=C(O)[C@@H]1CCCCN1; 4Abz = Nc1ccc(C(=O)O)cc1; CO = O=C([*:1])[*:2]; X2 = Fc1cc(N*)ccc1Cl

assay: Microsomal metabolic stability; assay type: in vitro ADME, human; conditions: human, pH 7.4
Protocol: Compounds were initially prepared by dissolving them into DMSO at a final concentration of 10 mM. NADPH regenerating solutions A and B and mouse liver microsomes (CD-1) were obtained from BD Gentest (Woburn, Mass.). Ninety-six well deep well plates were obtained from MidWest Scientific Inc (Valley Park, Mo.).
Sample preparation for microsomal stability was modified from methods of Di, L., et al., Int J Pharm. 2005 Jun. 13; 297(1-2):110-9. A set of incubation times of 0, 15, 30, 60, 120, and 240 minutes were used. Mouse liver microsomal solutions were prepared by adding 58 μL of concentrated human or mouse liver microsomes (20 mg/mL protein concentration) to 1.756 mL of 0.1 M potassium phosphate buffer (pH 7.4) and 5 μL of 0.5 M EDTA to make a 0.6381 mg/mL (protein) microsomal solution. NADPH regenerating agent contained 113 μL of NADPH A, 23 μL of NADPH B, and 315 μL of 0.1 M potassium phosphate buffer (pH 7.4). The diluted test compound solutions (2 μL) were each added directly to a 1.79 mL of liver microsomal solution. This solution was mixed and 90 μL was transferred to 6 time points plates (each in triplicate wells). For the time 0 plate, 225 μL of cold acetonitrile with internal standard ([…] warfarin) was added to each well, followed by addition of NADPH regenerating agent (22.5 μL) and no incubation. For other five time points' plate, NADPH regenerating agent (22.5 μL) was added to each well to initiate the reaction. The plates were incubated at 37° C. for the required time, followed by quenching of the reaction by adding 225 μL of cold acetonitrile with internal standard (4 μg/ml warfarin). All of the plates were sealed and mixed well at 600 rpm for 10 minutes followed by centrifugation at 4000 rpm for 20 minutes. The supernatants (120 μL) were transferred to analytical plates for analysis by LCMS. LCMS conditions were described in the materials and instrumentation section above. The metabolic stability is evaluated via the half-life from least-squares fit of the multiple time points based on first-order kinetics.

Row | Compound | Human
1 | C[C@@H]1C[C@H]2C(=O)OC[C@H](NC(=O)[C@H](Cc3cc(F)cc(F)c3)NC(=O)Nc3ccc(Cl)cc3F)C(=O)N3CCC[C@H]3C(=O)N3CCN(C)C[C@H]3C(=O)N[C@@H](C)C(=O)N2C1 [Compound 34] ({NH(4-Cl-2-F-phenyl)-CO}-[Phe(3,5-F2)]SP[Piperazine(2S-CO,4-Me)]A[Pro(4R-Me)]; ester 2-C) | 0.77 ± .775 h
2 | Cc1cccc(C[C@H](NC(=O)Nc2ccc(Cl)c(F)c2)C(=O)N[C@@H]2C(=O)N3CCC[C@H]3C(=O)N3CCCC[C@H]3C(=O)N[C@@H](C)C(=O)N3C[C@H](C)C[C@H]3C(=O)O[C@H]2C)c1 [Compound 35, (S)-2-(3-(4-CHLORO-3-FLUOROPHENYL)UREIDO)-3-(M-TOLYL)-N-((2R,6S,8AS,14AS,20S,21S,23AS)-2,6,21-TRIMETHYL-5,8,14,19,23-PENTAOXOOCTADECAHYDRO-1H,5H,14H,19H-PYRIDO[2,1-I]DIPYRROLO[2,1-C:2′,1′-L][1]OXA[4,7,10,13]TETRAAZACYCLOHEXADECIN-20-YL)PROPANAMIDE] ({X2-CO}-[Phe(3-Me)][aThr]P[Pip]A[Pro(4R-Me)]; ester 2-C) | 1.14 ± .145 h
3 | Cc1cccc(C[C@H](NC(=O)Nc2ccc(Cl)cc2F)C(=O)N[C@@H]2C(=O)N3CCC[C@H]3C(=O)N3CCSC[C@H]3C(=O)N[C@@H](C)C(=O)N3C[C@H](C)C[C@H]3C(=O)O[C@H]2C)c1 [Compound 38, (S)-2-(3-(4-CHLORO-2-FLUOROPHENYL)UREIDO)-3-(M-TOLYL)-N-((6AS,12S,13S,15AS,17R,21S,23AR)-13,17,21-TRIMETHYL-6,11,15,20,23-PENTAOXOOCTADECAHYDRO-6H,11H,15H-DIPYRROLO[2,1-C:2′,1′-L][1,4]THIAZINO[3,4-I][1]OXA[4,7,10,13]TETRAAZACYCLOHEXADECIN-12-YL)PROPANAMIDE] ({NH(4-Cl-2-F-phenyl)-CO}-[Phe(3-Me)][aThr]P[X1]A[Pro(4R-Me)]; ester 2-C) | 1.00 ± .003 h
4 | Cc1cccc(C[C@H](NC(=O)Nc2ccc(Cl)cc2F)C(=O)N[C@@H]2C(=O)N3CCC[C@H]3C(=O)N3CCS(=O)(=O)C[C@H]3C(=O)N[C@@H](C)C(=O)N3C[C@H](C)C[C@H]3C(=O)O[C@H]2C)c1 [Compound 40, (S)-2-(3-(4-CHLORO-2-FLUOROPHENYL)UREIDO)-3-(M-TOLYL)-N-((6AS,12S,13S,15AS,17R,21S,23AR)-13,17,21-TRIMETHYL-2,2-DIOXIDO-6,11,15,20,23-PENTAOXOOCTADECAHYDRO-6H,11H,15H-DIPYRROLO[2,1-C:2′,1′-L][1,4]THIAZINO[3,4-I][1]OXA[4,7,10,13]TETRAAZACYCLOHEXADECIN-12-YL)PROPANAMIDE] ({NH(4-Cl-2-F-phenyl)-CO}-[Phe(3-Me)][aThr]P[X6]A[Pro(4R-Me)]; ester 2-C) | 0.62 ± .623 h
5 | Cc1cccc(C[C@H](NC(=O)Nc2ccc(Cl)cc2F)C(=O)N[C@@H]2C(=O)N3C[C@H](O)C[C@H]3C(=O)N3CCSC[C@H]3C(=O)N[C@@H](C)C(=O)N3C[C@H](C)C[C@H]3C(=O)O[C@H]2C)c1 [Compound 41, (S)-2-(3-(4-CHLORO-2-FLUOROPHENYL)UREIDO)-N-((6AS,8R,12S,13S,15AS,17R,21S,23AR)-8-HYDROXY-13,17,21-TRIMETHYL-6,11,15,20,23-PENTAOXOOCTADECAHYDRO-6H,11H,15H-DIPYRROLO[2,1-C:2′,1′-L][1,4]THIAZINO[3,4-I][1]OXA[4,7,10,13]TETRAAZACYCLOHEXADECIN-12-YL)-3-(M-TOLYL)PROPANAMIDE] ({NH(4-Cl-2-F-phenyl)-CO}-[Phe(3-Me)][aThr][Hyp][X1]A[Pro(4R-Me)]; ester 2-C) | 0.41 ± .413 h
6 | Cc1cccc(C[C@H](NC(=O)Nc2ccc(Cl)cc2F)C(=O)N[C@@H]2C(=O)N3C[C@H](OC(=O)CCN(C)C)C[C@H]3C(=O)N3CCCC[C@H]3C(=O)N[C@@H](C)C(=O)N3C[C@H](C)C[C@H]3C(=O)O[C@H]2C)c1 [Compound 46, (2R,6S,8AS,14AS,16R,20S,21S,23AS)-20-((S)-2-(3-(4-CHLORO-2-FLUOROPHENYL)UREIDO)-3-(M-TOLYL)PROPANAMIDO)-2,6,21-TRIMETHYL-5,8,14,19,23-PENTAOXOOCTADECAHYDRO-1H,5H,14H,19H-PYRIDO[2,1-I]DIPYRROLO[2,1-C:2′,1′-L][1]OXA[4,7,10,13]TETRAAZACYCLOHEXADECIN-16-YL 3-(DIMETHYLAMINO)PROPANOATE] ({NH(4-Cl-2-F-phenyl)-CO}-[Phe(3-Me)][aThr][Hyp](Propanoyl(3-NMe2))[Pip]A[Pro(4R-Me)]; ester 2-C) | 2.09 ± 0.14 h

same assay, conditions: microsomal metabolic stability half-life, human liver microsomes

Row | Compound | Human
7 | Cc1ccc(NC(=O)N[C@@H](Cc2cccc(C)c2)C(=O)N[C@H]2COC(=O)[C@@H]3C[C@H](C)CN3C(=O)[C@H](C)NC(=O)[C@@H]3CCCCN3C(=O)[C@@H]3CCCN3C2=O)cc1 (stereo in doubt) [Compound 43, (S)—N-((2S,6S,8AS,14AS,20S,23AS)-2,6-DIMETHYL-5,8,14,19,23-PENTAOXOOCTADECAHYDRO-1H,5H,14H,19H-PYRIDO[2,1-I]DIPYRROLO[2,1-C:2′,1′-L][1]OXA[4,7,10,13]TETRAAZACYCLOHEXADECIN-20-YL)-3-(M-TOLYL)-2-(3-(P-TOLYL)UREIDO)PROPANAMIDE] | 1.36 ± 0.14 h
8 | C[C@@H]1C[C@H]2C(=O)O[C@@H](C)[C@H](NC(=O)[C@H](Cc3cc(F)cc(F)c3)NC(=O)Nc3ccc4c(c3)CCN4C)C(=O)N3CCC[C@H]3C(=O)N3CCOC[C@H]3C(=O)N[C@@H](C)C(=O)N2C1 [Compound 32] ({NH(1-Me-indolin-5-yl)-CO}-[Phe(3,5-F2)][aThr]P[Morpholine(3S-CO)]A[Pro(4R-Me)]; ester 2-C) | 2.66 ± .66 h
9 | CCOC(=O)c1ccc(NC(=O)N[C@@H](Cc2cccc(C)c2)C(=O)N[C@@H]2C(=O)N3C[C@H](O)C[C@H]3C(=O)N3CCCC[C@H]3C(=O)N[C@@H](C)C(=O)N3C[C@H](C)C[C@H]3C(=O)O[C@H]2C)cc1 [Compound 36, ETHYL 4-(3-((S)-1-(((2R,6S,8AS,14AS,16R,20S,21S,23AS)-16-HYDROXY-2,6,21-TRIMETHYL-5,8,14,19,23-PENTAOXOOCTADECAHYDRO-1H,5H,14H,19H-PYRIDO[2,1-I]DIPYRROLO[2,1-C:2′,1′-L][1]OXA[4,7,10,13]TETRAAZACYCLOHEXADECIN-20-YL)AMINO)-1-OXO-3-(M-TOLYL)PROPAN-2-YL)UREIDO)BENZOATE] ({OEt-4Abz-CO}-[Phe(3-Me)][aThr][Hyp][Pip]A[Pro(4R-Me)]; ester 2-C) | 4.81 ± .815 h
10 | Cc1ccc(NC(=O)N[C@@H](Cc2cccc(C)c2)C(=O)N[C@@H]2C(=O)N3C[C@H](O)C[C@H]3C(=O)N3CCSC[C@H]3C(=O)N[C@@H](C)C(=O)N3C[C@H](C)C[C@H]3C(=O)O[C@H]2C)cc1 [Compound 42, (S)—N-((6AS,8R,12S,13S,15AS,17R,21S,23AR)-8-HYDROXY-13,17,21-TRIMETHYL-6,11,15,20,23-PENTAOXOOCTADECAHYDRO-6H,11H,15H-DIPYRROLO[2,1-C:2′,1′-L][1,4]THIAZINO[3,4-I][1]OXA[4,7,10,13]TETRAAZACYCLOHEXADECIN-12-YL)-3-(M-TOLYL)-2-(3-(P-TOLYL)UREIDO)PROPANAMIDE] ({NH(4-Me-phenyl)-CO}-[Phe(3-Me)][aThr][Hyp][X1]A[Pro(4R-Me)]; ester 2-C) | 0.81 ± .813 h
11 | Cc1ccc(NC(=O)N[C@@H](Cc2cccc(C)c2)C(=O)N[C@@H]2C(=O)N3CCC[C@H]3C(=O)N3CCCC[C@H]3C(=O)N[C@@H](C)C(=O)N3C[C@@H](C)C[C@H]3C(=O)O[C@H]2C)cc1 [Compound 45, (S)-3-(M-TOLYL)-2-(3-(P-TOLYL)UREIDO)-N-((2S,6S,8AS,14AS,20S,21S,23AS)-2,6,21-TRIMETHYL-5,8,14,19,23-PENTAOXOOCTADECAHYDRO-1H,5H,14H,19H-PYRIDO[2,1-I]DIPYRROLO[2,1-C:2′,1′-L][1]OXA[4,7,10,13]TETRAAZACYCLOHEXADECIN-20-YL)PROPANAMIDE] ({NH(4-Me-phenyl)-CO}-[Phe(3-Me)][aThr]P[Pip]A[Pro(4S-Me)]; ester 2-C) | 2.77 ± 0.3 h
12 | Cc1ccc(NC(=O)N[C@@H](Cc2cccc(C)c2)C(=O)N[C@H]2COC(=O)[C@@H]3CCCN3C(=O)[C@H](C)NC(=O)[C@@H]3CCCCN3C(=O)[C@@H]3C[C@@H](O)CN3C2=O)cc1 [Compound 49, (S)—N-((6S,8AS,14AS,16R,20S,23AS)-16-HYDROXY-6-METHYL-5,8,14,19,23-PENTAOXOOCTADECAHYDRO-1H,5H,14H,19H-PYRIDO[2,1-I]DIPYRROLO[2,1-C:2′,1′-L][1]OXA[4,7,10,13]TETRAAZACYCLOHEXADECIN-20-YL)-3-(M-TOLYL)-2-(3-(P-TOLYL)UREIDO)PROPANAMIDE] | 0.81 ± .813 h
